{"source": "patent US6590140B1", "about": "“Metal-regulated transporters and uses therefor” (Trustees of Dartmouth College, priority 1996, dated 2003)", "key": {"ZIP1": {"target": "T1, ZIP1 (Arabidopsis thaliana, UniProt O81123)", "T1 construct": "expressed in transfected cells; host or cells: S. cerevisiae ZHY3 (zrt1::LEU2 zrt2::HIS3) with an Arabidopsis cDNA clone in pFL61", "T1 sequence (O81123 29-355)": "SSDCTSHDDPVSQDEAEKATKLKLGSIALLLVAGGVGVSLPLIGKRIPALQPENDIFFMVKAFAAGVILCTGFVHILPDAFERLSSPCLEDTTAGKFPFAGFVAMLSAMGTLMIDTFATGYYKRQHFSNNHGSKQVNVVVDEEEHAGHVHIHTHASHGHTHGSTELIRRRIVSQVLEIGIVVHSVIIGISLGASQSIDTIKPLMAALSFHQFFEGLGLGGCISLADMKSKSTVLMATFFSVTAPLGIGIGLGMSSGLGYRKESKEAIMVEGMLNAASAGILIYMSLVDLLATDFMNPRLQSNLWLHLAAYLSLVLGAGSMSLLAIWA", "assay": "Zn uptake by ZHY3 containing the ZIP1 gene", "format": "cell-based", "details": "5 minute time course using 10 mM Zn", "experimental": "(§1) Zinc uptake assays were performed as described previously for iron uptake (Eide et al. (1992) J. Biol. Chem. 267:20774-20781) except that ^65ZnCl2 (Amersham) and LZM-EDTA were substituted for ^59FeCI3 and LIM-EDTA, respectively. Cells were incubated for 5 minutes in LZM-EDTA plus the indicated concentration of ^65Zn, collected on glass fiber filters (Schleicher and Schuell), washed with 10 ml ice-cold SSW (1 mM EDTA, 20 mM trisodium citrate, 1 mM KH2PO4, 1 mM CaCl2, 5 mM MgSO4, 1 mM NaCl pH 4.2), and cell-associated radioactivity was measured by liquid scintillation counting. […] Michaelis-Menten kinetic values were determined using […] software (Intellikinetics, Princeton, N.J.). […] The statistical significance of the differences of values relative to controls was determined with one-way analysis of variance (ANOVA) followed by a Dunnett multiple comparison test. β-galactosidase activity was assayed in cells harvested at an OD600 of 0.5-2.0 as described by Guarente (Guarente, L. (1983) Methods Enzymol. 101:181-191) and activity is expressed as the change in absorbance at 420 nm×1000 divided by (min×ml of culture used×OD600 of the culture). Cell-associated zinc was measured in parallel cultures supplemented with tracer amounts of ^65Zn (10 μM) and nonradioactive zinc to the indicated final concentration. […]"}, "[1]": {"tested_on": "divalent cation uptake system", "details": "total zinc; earlier studies (Fuhrmann and Rothstein 1968); read-out: apparent Km of zinc uptake by the divalent cation uptake system; cited from earlier work"}, "ZIP3": {"target": "T2, ZIP3 (Arabidopsis thaliana, UniProt Q9SLG3)", "T2 construct": "expressed in transfected cells; host or cells: S. cerevisiae ZHY3 (zrt1::LEU2 zrt2::HIS3) with an Arabidopsis cDNA clone in pFL61", "T2 sequence (Q9SLG3 26-339)": "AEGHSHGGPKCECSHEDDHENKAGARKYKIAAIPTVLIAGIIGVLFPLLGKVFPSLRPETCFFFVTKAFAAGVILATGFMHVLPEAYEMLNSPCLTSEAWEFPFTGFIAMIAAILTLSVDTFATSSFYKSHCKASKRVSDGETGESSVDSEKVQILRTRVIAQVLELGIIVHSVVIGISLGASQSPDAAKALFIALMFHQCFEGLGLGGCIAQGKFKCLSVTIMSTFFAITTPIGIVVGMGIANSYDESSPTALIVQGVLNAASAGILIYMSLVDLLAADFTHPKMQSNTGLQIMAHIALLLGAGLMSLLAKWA", "assay": "Zn uptake by ZHY3 containing ZIP3", "format": "cell-based", "details": "ZIP3 containing ZHY3 cells, 5 minute time course using 10 mM Zn", "experimental": "as §1"}, "ZRT1 promoter": {"tested_on": "ZRT1 promoter", "assay": "ZRT1-lacZ fusion β-galactosidase assay", "format": "cell-based, Saccharomyces cerevisiae", "details": "LZM-EDTA, 16 hours", "experimental": "Zinc uptake assays were performed as described previously for iron uptake (Eide et al. (1992) J. Biol. Chem. 267:20774-20781) except that ^65ZnCl2 (Amersham) and LZM-EDTA were substituted for ^59FeCI3 and LIM-EDTA, respectively. Cells were incubated for 5 minutes in LZM-EDTA plus the indicated concentration of ^65Zn, collected on glass fiber filters (Schleicher and Schuell), washed with 10 ml ice-cold SSW (1 mM EDTA, 20 mM trisodium citrate, 1 mM KH2PO4, 1 mM CaCl2, 5 mM MgSO4, 1 mM NaCl pH 4.2), and cell-associated radioactivity was measured by liquid scintillation counting. Cells were starved for glucose by incubating them in LZM-EDTA prepared without glucose for one hour at 30° C. prior to assay. Michaelis-Menten kinetic values were determined using […] software (Intellikinetics, Princeton, N.J.). Stock solutions of the chloride salts of Co, Cu, Mg, Mn, and Ni were prepared in distilled water at a concentration of 100 mM. The nonradioactive ZnCl2 stock was prepared at 100 mM in 0.02 N HCl and the FeCl3 stock was prepared at 50 mM in 0.1 N HCl. The statistical significance of the differences of values relative to controls was determined with one-way analysis of variance (ANOVA) followed by a Dunnett multiple comparison test. β-galactosidase activity was assayed in cells harvested at an OD600 of 0.5-2.0 as described by Guarente (Guarente, L. (1983) Methods Enzymol. 101:181-191) and activity is expressed as the change in absorbance at 420 nm×1000 divided by (min×ml of culture used×OD600 of the culture). Cell-associated zinc was measured in parallel cultures supplemented with tracer amounts of ^65Zn (10 μM) and nonradioactive zinc to the indicated final concentration. Aliquots (0.5 ml) were filtered, washed with 10 ml ice-cold SSW, and radioactivity measured by liquid scintillation.\nThe effects of the zrt2 mutation on the regulation of the ZRT1 gene was also examined. […] Furthermore, cell-associated zinc levels are much lower in the zrt1 mutant grown in zinc-limiting conditions. At higher concentrations of extracellular zinc, however, these levels increased to the wild type levels. It was proposed that this accumulation was the result of zinc uptake by the low affinity system. To test this hypothesis and determine the effect of the zrt2 mutation on the pool of intracellular zinc that regulates ZRT1 gene expression, β-galactosidase activity from the ZRT1-lacZ fusion in wild type, zrt1, zrt2, and zrt1zrt2 mutant strains grown in media supplemented with a broad range of zinc concentrations was measured. […] These values are also plotted against the calculated free zinc concentration ([Zn]F). […]"}}}
{"compound": "[Zn+2]", "note": "[zinc]", "values": [{"measurement": "Zn uptake rate", "setting": "ZIP1", "result": 191, "unit": "fmol/min/10^6 cells"}, {"measurement": "Km", "setting": "[1]", "result": "~500", "unit": "µM"}, {"measurement": "Zn uptake rate", "setting": "ZIP3", "result": 134, "unit": "fmol/min/10^6 cells"}, {"measurement": "calculated free zinc [Zn]F at which β-galactosidase activity decreased to its minimal level", "setting": "ZRT1 promoter; zrt1 mutant", "result": "~0.12", "unit": "µM"}, {"measurement": "total zinc at which β-galactosidase activity decreased to its minimal level", "setting": "ZRT1 promoter; zrt1 mutant", "result": 10, "unit": "µM"}, {"measurement": "calculated free zinc [Zn]F at which ZRT1-lacZ expression was down-regulated", "setting": "ZRT1 promoter; zrt1zrt2 mutant", "result": "~2.4", "unit": "µM"}, {"measurement": "total zinc concentration at which ZRT1-lacZ expression was down-regulated", "setting": "ZRT1 promoter; zrt1zrt2 mutant", "result": "≥ 200", "unit": "µM"}]}
